Source: patent publication US7491489B2 (priority 2004, dated 2009)
Values after ≈ are worked out from the molar mass of the structure shown.

Columns and labels:
SARS-CoV GZ50 strain [1] = tested on: SARS-CoV GZ50 strain
SARS-CoV GZ50 strain [2] = assay type: cell-based

Row | Structure (SMILES) | IC90 (peptide concentration that reduced the viral titer by 90% relative to untreated control) (SARS-CoV GZ50 strain [1]) | Released viral titer relative to untreated control (SARS-CoV GZ50 strain [1]) | Intracellular viral RNA levels (SARS-CoV GZ50 strain [2]) | Cytotoxic effects on peptide-treated cells (FRhK-4 cells)
1 | CC[C@H](C)[C@H](NC(=O)CN)C(=O)NCC(=O)N[C@H](C(=O)N[C@H](C(=O)N[C@@H](CCC(N)=O)C(=O)N[C@@H](CC(N)=O)C(=O)N[C@H](C(=O)N[C@@H](CC(C)C)C(=O)N[C@@H](Cc1ccc(O)cc1)C(=O)N[C@@H](CCC(=O)O)C(=O)N[C@@H](CC(N)=O)C(=O)N[C@@H](CCC(N)=O)C(=O)N[C@@H](CCCCN)C(=O)N[C@@H](CCC(N)=O)C(=O)N[C@H](C(=O)N[C@@H](C)C(=O)N[C@@H](CC(N)=O)C(=O)N[C@@H](CCC(N)=O)C(=O)N[C@@H](Cc1ccccc1)C(=O)O)[C@@H](C)CC)C(C)C)[C@@H](C)O)C(C)C [P9] | >500 µg/mL | – | – | –
2 | CC[C@H](C)[C@H](NC(=O)[C@H](CO)NC(=O)[C@H](Cc1ccccc1)NC(=O)[C@H](CC(N)=O)NC(=O)[C@@H](NC(=O)[C@@H]1CCCN1C(=O)[C@@H](NC(=O)[C@H](C)NC(=O)[C@@H](NC(=O)[C@@H](NC(=O)[C@H](CC(N)=O)NC(=O)[C@H](CC(N)=O)NC(=O)[C@@H](N)CO)[C@@H](C)O)[C@@H](C)CC)[C@@H](C)CC)[C@@H](C)O)C(=O)N[C@@H](CO)C(=O)N[C@H](C(=O)N[C@H](C(=O)N[C@H](C(=O)N[C@@H](CCC(=O)O)C(=O)N[C@H](C(=O)N[C@@H](CCSC)C(=O)O)C(C)C)[C@@H](C)O)[C@@H](C)O)[C@@H](C)CC [P7] | >500 µg/mL | – | – | –
3 | CC[C@H](C)[C@H](NC(=O)CNC(=O)[C@H](CO)NC(=O)[C@@H](NC(=O)[C@@H](NC(=O)[C@H](Cc1ccc(O)cc1)NC(=O)[C@H](Cc1ccccc1)NC(=O)CNC(=O)[C@H](Cc1ccc(O)cc1)NC(=O)[C@H](CC(=O)O)NC(=O)[C@H](CC(N)=O)NC(=O)[C@H](CC(C)C)NC(=O)[C@@H]1CCCN1C(=O)[C@H](Cc1c[nH]c2ccccc12)NC(=O)[C@H](Cc1ccc(O)cc1)NC(=O)[C@H](CS)NC(=O)[C@H](CC(N)=O)NC(=O)[C@H](CC(C)C)NC(=O)[C@H](C)NC(=O)[C@@H]1CCCN1)[C@@H](C)O)[C@@H](C)O)C(=O)O [P4] | >500 µg/mL | – | – | –
4 | CC[C@H](C)[C@H](NC(=O)[C@H](C)NC(=O)[C@@H](NC(=O)[C@H](CO)NC(=O)[C@@H](NC(=O)[C@H](CC(=O)O)NC(=O)[C@@H](NC(=O)[C@H](CS)NC(=O)[C@H](CC(N)=O)NC(=O)[C@@H](NC(=O)[C@H](CC(=O)O)NC(=O)[C@H](CCC(N)=O)NC(=O)[C@@H](N)Cc1ccc(O)cc1)C(C)C)[C@@H](C)O)C(C)C)[C@@H](C)O)C(=O)N[C@@H](Cc1c[nH]cn1)C(=O)N[C@@H](C)C(=O)N[C@@H](CC(=O)O)C(=O)N[C@@H](CCC(N)=O)C(=O)N[C@@H](CC(C)C)C(=O)N[C@H](C(=O)N1CCC[C@H]1C(=O)O)[C@@H](C)O [P6] | 113.0 µg/mL (≈ 51.6 µM) | 18 % of the control | reduced | –
5 | CC[C@H](C)[C@H](NC(=O)[C@H](CCC(=O)O)NC(=O)[C@H](CO)NC(=O)[C@@H](NC(=O)[C@H](CCCCN)NC(=O)[C@@H]1CCCN1C(=O)[C@H](CC(=O)O)NC(=O)[C@H](CCCNC(=N)N)NC(=O)[C@@H](NC(=O)[C@H](CO)NC(=O)[C@H](CC(=O)O)NC(=O)[C@@H](NC(=O)[C@H](Cc1ccccc1)NC(=O)[C@H](CC(=O)O)NC(=O)[C@H](CO)NC(=O)[C@@H](NC(=O)[C@H](CC(=O)O)NC(=O)[C@@H](N)CCCNC(=N)N)C(C)C)[C@@H](C)O)C(C)C)[C@@H](C)O)C(=O)N[C@@H](CC(C)C)C(=O)N[C@@H](CC(=O)O)C(=O)O [P5] | >500 µg/mL | – | – | –
6 | CC[C@H](C)[C@H](NC(=O)CNC(=O)[C@H](CO)NC(=O)[C@H](CC(C)C)NC(=O)[C@H](C)NC(=O)[C@H](CCCNC(=N)N)NC(=O)[C@H](CC(N)=O)NC(=O)[C@H](CC(C)C)NC(=O)[C@H](CCC(N)=O)NC(=O)[C@@H](NC(=O)[C@H](CS)NC(=O)[C@H](Cc1ccccc1)NC(=O)[C@H](CO)NC(=O)CNC(=O)[C@H](Cc1ccc(O)cc1)NC(=O)[C@@H](N)CCC(N)=O)[C@@H](C)O)C(=O)N[C@@H](C)C(=O)N[C@@H](C)C(=O)N[C@@H](CCC(=O)O)C(=O)N[C@@H](CCC(N)=O)C(=O)O [P8] | 24.9 µg/mL (≈ 11.5 µM) | – | – | None of the 10 peptide-treated cells exhibited cytotoxic effects
7 | CC(C)C[C@H](NC(=O)[C@@H](N)C(C)C)C(=O)N[C@@H](Cc1ccc(O)cc1)C(=O)N[C@@H](CC(N)=O)C(=O)N[C@@H](CO)C(=O)N[C@H](C(=O)N[C@@H](Cc1ccccc1)C(=O)N[C@@H](Cc1ccccc1)C(=O)N[C@@H](CO)C(=O)N[C@H](C(=O)N[C@@H](Cc1ccccc1)C(=O)N[C@@H](CCCCN)C(=O)N[C@@H](CS)C(=O)N[C@@H](Cc1ccc(O)cc1)C(=O)NCC(=O)N[C@H](C(=O)N[C@@H](CO)C(=O)N[C@@H](C)C(=O)N[C@H](C(=O)N[C@@H](CCCCN)C(=O)O)[C@@H](C)O)C(C)C)[C@@H](C)O)[C@@H](C)O [P3] | >500 µg/mL | – | – | –
8 | CC[C@H](C)[C@H](NC(=O)CNC(=O)[C@H](CC(C)C)NC(=O)[C@@H]1CCCN1C(=O)[C@H](CC(C)C)NC(=O)[C@H](CCCCN)NC(=O)[C@@H](N)Cc1ccccc1)C(=O)N[C@@H](CC(N)=O)C(=O)N[C@H](C(=O)N[C@H](C(=O)N[C@@H](CC(N)=O)C(=O)N[C@@H](Cc1ccccc1)C(=O)N[C@@H](CCCNC(=N)N)C(=O)N[C@@H](C)C(=O)N[C@H](C(=O)N[C@@H](CC(C)C)C(=O)N[C@H](C(=O)N[C@@H](C)C(=O)N[C@@H](Cc1ccccc1)C(=O)N[C@@H](CO)C(=O)O)[C@@H](C)O)[C@@H](C)CC)[C@@H](C)O)[C@@H](C)CC [P1] | >500 µg/mL | – | – | –
9 | CC[C@H](C)[C@H](NC(=O)[C@@H](NC(=O)CNC(=O)[C@H](CC(N)=O)NC(=O)[C@H](CCC(=O)O)NC(=O)[C@H](CC(=O)O)NC(=O)[C@H](Cc1ccc(O)cc1)NC(=O)[C@H](CCCCN)NC(=O)[C@H](CC(C)C)NC(=O)[C@H](CCSC)NC(=O)[C@H](Cc1ccccc1)NC(=O)[C@@H](NC(=O)[C@@H](NC(=O)[C@@H]1CCCN1)[C@@H](C)O)[C@@H](C)O)[C@@H](C)O)C(=O)N[C@H](C(=O)N[C@@H](CC(=O)O)C(=O)N[C@@H](C)C(=O)N[C@H](C(=O)N[C@@H](CC(=O)O)C(=O)N[C@@H](CS)C(=O)O)C(C)C)[C@@H](C)O [P2] | 112.5 ± 26.3 µg/mL (≈ 50.3 µM) | 18 % of the control | reduced | –
